# Results published in PubChem BioAssay AID1247 (Sanford-Burnham Center for Chemical Genomics, 2008).
# Active and inactive are the calls of the source.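 The calls were made as follows: active = EC50 below a set limit, with activity reproduced on retest from dry powder; inactive = the rest.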
# Tested on: CSM 14.1 cells, thapsigargin ER-stress death rescue, ATPlite 24 h
# Experiment: potency of ER stress death protectors, SAR follow-up, CSM14.1 cells, ATP luminescence, benzodiazepine series (AID 1247)
row,SMILES,EC50
1,COc1ccc(C2CC(=O)C3=C(C2)Nc2ccccc2NC3c2c(F)cccc2F)cc1 (configuration not stated),33 µM
2,COc1ccc(C2CC(=O)C3=C(C2)Nc2ccccc2NC3c2ccc(NC(C)=O)cc2)cc1 (configuration not stated),> 100 µM (inactive)
3,Cc1ccc(C2Nc3ccccc3NC3=C2C(=O)CC(c2ccc(Cl)cc2)C3)cc1 (configuration not stated),9.76 µM
4,CSc1ccc(C2Nc3ccccc3NC3=C2C(=O)CC(c2ccccc2)C3)cc1 (configuration not stated),13.9 µM
5,COc1ccc(C2CC(=O)C3=C(C2)Nc2ccccc2NC3c2cccc(Cl)c2)cc1 (configuration not stated),20.7 µM
6,CCCOc1ccc(C2Nc3ccccc3NC3=C2C(=O)CC(c2ccc(OC)c(OC)c2)C3)cc1 (configuration not stated),16.2 µM
7,O=C1CC(c2ccccc2)CC2=C1C(c1cccc3ccccc13)Nc1ccccc1N2 (configuration not stated),16 µM
8,COc1ccc(C2CC(=O)C3=C(C2)Nc2ccccc2NC3c2ccccc2C)cc1OC (configuration not stated),35.8 µM
9,CCN(CC)c1ccc(C2Nc3ccccc3NC3=C2C(=O)CC(c2ccccc2)C3)cc1 (configuration not stated),7.15 µM
10,COc1ccc(C2CC(=O)C3=C(C2)Nc2ccccc2NC3c2cc(C)ccc2C)cc1 (configuration not stated),17.2 µM
11,CCN(CC)c1ccc(C2Nc3ccccc3NC3=C2C(=O)CC(c2ccc(OC)cc2)C3)cc1 (configuration not stated),8.53 µM
12,CCOc1cc(C2Nc3ccccc3NC3=C2C(=O)CC(c2ccc(OC)cc2)C3)cc(Cl)c1O (configuration not stated),23.5 µM
13,COc1ccc(C2CC(=O)C3=C(C2)Nc2ccccc2NC3c2cccc(O)c2)cc1 (configuration not stated),> 100 µM (inactive)
14,COc1ccc(C2CC(=O)C3=C(C2)Nc2ccccc2NC3c2ccccc2OC(C)C)cc1 (configuration not stated),17.7 µM
15,COc1ccc(C2CC(=O)C3=C(C2)Nc2ccccc2NC3c2ccc(C(C)C)cc2)cc1 (configuration not stated),8.22 µM
16,CCOc1cccc(C2Nc3ccccc3NC3=C2C(=O)CC(c2ccc(OC)cc2)C3)c1 (configuration not stated),20.4 µM
17,COc1ccc(C2CC(=O)C3=C(C2)Nc2ccccc2NC3c2ccc3ccccc3c2)cc1 (configuration not stated),11.5 µM
18,CCOc1cc(C2Nc3ccccc3NC3=C2C(=O)CC(c2ccc(OC)cc2)C3)cc(Br)c1O (configuration not stated),18 µM
19,O=C1CC(c2ccccc2)CC2=C1C(c1c(F)cccc1Cl)Nc1ccccc1N2 (configuration not stated),18.1 µM

row,SMILES,EC50
1,COc1ccc(C2CC(=O)C3=C(C2)Nc2ccccc2NC3c2c(Cl)cccc2Cl)cc1 (configuration not stated),24.4 µM
2,COc1ccc(C2CC(=O)C3=C(C2)Nc2ccccc2NC3c2c(F)cccc2Cl)cc1 (configuration not stated),13.5 µM
3,COc1ccc(C2CC(=O)C3=C(C2)Nc2ccccc2NC3c2cccc(C(F)(F)F)c2)cc1OC (configuration not stated),16.6 µM
4,COc1ccc(C2Nc3ccccc3NC3=C2C(=O)CC(c2ccc(Cl)cc2)C3)cc1 (configuration not stated),11.1 µM
5,COc1ccc(C2CC(=O)C3=C(C2)Nc2ccccc2NC3c2ccccc2[N+](=O)[O-])cc1OC (configuration not stated),36.8 µM
6,Cc1ccc(C2Nc3ccccc3NC3=C2C(=O)CC(c2ccccc2)C3)cc1 (configuration not stated),19.2 µM
7,COc1ccc(C2CC(=O)C3=C(C2)Nc2ccccc2NC3c2ccc(O)cc2)cc1 (configuration not stated),> 100 µM (inactive)
8,COc1ccc(C2CC(=O)C3=C(C2)Nc2ccccc2NC3c2ccc(C)cc2)cc1OC (configuration not stated),28.1 µM
9,COc1ccc(C2CC(=O)C3=C(C2)Nc2ccccc2NC3c2ccc(-c3ccccc3)cc2)cc1OC (configuration not stated),14.7 µM
10,COc1ccc(C2CC(=O)C3=C(C2)Nc2ccccc2NC3c2cccc(Oc3ccccc3)c2)cc1OC (configuration not stated),8.07 µM
11,COc1ccc(C2CC(=O)C3=C(C2)Nc2ccccc2NC3c2ccncc2)cc1OC (configuration not stated),> 100 µM (inactive)
12,COc1ccc(C2CC(=O)C3=C(C2)Nc2ccccc2NC3c2ccccc2C(F)(F)F)cc1OC (configuration not stated),17.4 µM
13,COc1ccc(C2CC(=O)C3=C(C2)Nc2ccccc2NC3c2ccc(F)c(F)c2)cc1 (configuration not stated),20.9 µM
14,COc1ccc(C2CC(=O)C3=C(C2)Nc2ccccc2NC3c2ccccc2Cl)cc1OC (configuration not stated),40.3 µM
15,CC(C)Oc1ccccc1C1Nc2ccccc2NC2=C1C(=O)CC(c1ccc(Cl)cc1)C2 (configuration not stated),6.03 µM
16,COc1ccc(C2CC(=O)C3=C(C2)Nc2ccccc2NC3c2cccc(Br)c2)cc1OC (configuration not stated),16.9 µM
17,O=C1CC(c2ccccc2)CC2=C1C(c1ccc(Cl)cc1Cl)Nc1ccccc1N2 (configuration not stated),> 100 µM (inactive)
18,CCCCOc1ccccc1C1Nc2ccccc2NC2=C1C(=O)CC(c1ccccc1)C2 (configuration not stated),13.2 µM
